Laboratory results: patent US20050118613A1, “Methods and kits for predicting the likelihood of successful treatment of cancer” (Oncomethylome Sciences S.A., priority 2003, published 2005)

Legend:
[1] = test system: stage II and III colorectal cancers; test: Survival of stage II and III colorectal cancer patients treated by surgery alone or surgery plus standard 5FU chemotherapy, by hMLH1 methylation; format: in vivo, human
Text: The predictive value of hMLH1 methylation for survival benefit with 5FU chemotherapy was examined in a series of stage II and III colorectal cancers that had been treated by surgery alone (no chemotherapy) or by surgery plus standard 5FU chemotherapy.
The following primers were used to detect methylated hMLH1 following bisulfite conversion (utilising the MSP technique): […]

[2] = test system: stage III CRC patients; test: Survival of stage III CRC patients treated by surgery alone or by surgery and 5-FU/leucovorin (matched cohorts), by CIMP status; format: in vivo, human
Text: A total of 891 stage III CRC cases were diagnosed at the Sir Charles Gairdner Hospital between 1985 and 1999 (14). This spans the time period during which 5-FU-based adjuvant chemotherapy was being introduced in Western Australia for the management of stage III CRC. Adjuvant chemotherapy was given to 270 (30%) patients according to the standard Mayo regimen (5-FU/leucovorin). This comprised at least two cycles of chemotherapy, and for the majority of patients the full six cycles were completed. Patients were separated into categories based on 5-year age intervals, gender, and site of tumor origin. […] Within these groups, adjuvant-treated and nontreated patients were pair-matched at random. A total cohort of 125 matched pairs was selected for DNA methylation analysis. […] All cases were diagnosed at a single pathology laboratory (Hospital and University Pathology Service/Pathcenter) associated with the Sir Charles Gairdner Hospital. This laboratory maintained relatively constant reporting practices during the 1985-1999 study period. Five cases were classified as T4 lesions, and all others were classified as T3. The study included 48 rectal, 24 sigmoid, 24 descending colon, 17 transverse colon, 47 ascending colon, and 46 cecal tumors. Four patients with rectal cancer received post-operative radiotherapy. Disease-specific survival information was obtained on all 206 patients by examination of hospital and West Australian Health Department records. The median follow-up time was 39 months (range, 1-172 months), with 119 patients (58%) dying as a result of recurrent disease by the end of the study. Survival data for 19 (9%) patients who died from other causes were censored at the time of death. It has been estimated that net migration out of the state of Western Australia is 0.4% per year, equating to approximately 1 case/year of the 206 cases investi-gated in this series. However, this rate is expected to be considerably lower for older individuals and particularly for those diagnosed with cancer. The Sir Charles Gairdner Hospital Human Research Ethics Committee gave approval for this study.
Methylation-specific PCR was used to determine the methylation status of CpG islands located within the p16 promoter (4, 5, 10, 17), the MINT-2 clone (3, 4), and the MDR1 promoter (4, 9). DNA amplification of all three CpG loci was successful for 103 matched pairs, equating to an overall success rate of approximately 90%. CIMP+ was arbitrarily defined as the presence of two or more of these sites showing methylation. Of the 206 tumors successfully analyzed in this study for CIMP+ status, the majority (83%) were sourced from formalin-fixed and paraffin-embedded archival tissue blocks. The remaining cases were in the form of unfixed tissue samples taken shortly after surgical resection and stored frozen at −80° C.
Multivariate Cox proportional hazard test with matched-pair stratification and Kaplan-Meier analyses were used to evaluate differences in survival between patient groups. Regression sensitivity was determined by analyzing the effect of unmeasured binary confounders as described by Lin et al. (20) Statistical analyses were performed using the Stata 7.0 (College Station, Tex.) software package. All Ps are two-sided.

With `O=c1[nH]cc(F)c(=O)[nH]1` [5-FU, 5-fluorouracil] as the compound, how does the “survival of patient group” value ([1]; hMLH1 methylated, chemotherapy (10/10), P = 0.097 vs no chemotherapy) read?
The value was 10/10 (100%) P = 0.097.

What about the “survival of patient group” value ([1]; hMLH1 non-methylated, chemotherapy (15/22), P = NS vs no chemotherapy) of the same compound?
The value was 15/22 (68%) P = NS.

What about the “impact of chemotherapy on overall survival” value ([1]; patients with methylated hMLH1 gene, chemotherapy vs no chemotherapy (FIG. 3C)) of the same compound?
The value was “positive impact”.

And the “RR (relative risk), predictive value of CIMP+ for survival benefit” value ([2]; CIMP+, multivariate analysis for matched pairs, independent of MSI+ and p53 status, 95% CI 0.06-0.84, P=0.027)?
The value was 0.22.

What about the “long-term survival benefit from 5-FU treatment” value ([2]; CIMP- patients) of the same compound?
Its value is “no long-term survival benefit”.

And the “RR (relative risk), survival benefit from 5-FU” value ([2]; CIMP- patients, 95% CI 0.62-1.49, P=0.86)?
Its value is 0.96.

And the “RR (relative risk), survival benefit associated with the use of 5-FU” value ([2]; all stage III CRC patients, surgery + 5-FU vs surgery alone, 95% CI 0.43-0.90, P=0.012)?
The value was 0.62.

What about the “survival of CIMP+ patients compared to CIMP-” value ([2]; cohort treated with surgery plus 5-FU) of the same compound?
Its value is “trend for better survival”.

What about the “patients who died from recurrent CRC despite the use of 5-FU” value ([2]; patients with CIMP+ tumors) of the same compound?
The value was “approximately 40%”.
